Measured values reported in US20050256093A1, “Branched polyamine steroid derivatives” (Leo Pharma, priority 2002, published 2005).
Values after ≈ are worked out from the molar mass of the structure shown.

Legend:
Assay in all cases: agar cup assay MIC
Assay type in all cases: cell-based
Asbergillus niger ZM35 = details: Aspergillus niger
From the text: (§1) In vitro investigations have shown a significant potency of the compounds of the invention against a large number of bacteria including gram-positive and gram-negative strains (Staphyiococci, Streptococci, Corynebacteriae, Mycobacteriae, Proteus, Propionibacterium, Pseudomonas, Neisseriae, E. coli) and fungal strains (Candida and Aspergillus). […] In addition, the studies of post-antibiotic effects point towards a strong bactericidal effect of the compounds of the invention. […] Minimum Inhibitory Concentrations were estimated using an agar cup assay. Bacterial strains were obtained from the American Type Culture Collection or from our own collection of clinical isolates. Colonies from fresh overnight culture were resuspended in saline water to 0.5 MacFarland corresponding to 10^8 CFU/ml. 200 ml Mueller Hinton agar (Oxoid) at 48° C. was inoculated at a concentration of 10^6 CFU/ml and poured into square petri dishes (245×245 mm). Holes were made in the inoculated plates and 200 μl of the compounds to be tested were disposed into each hole. A dilution series of compounds contained six dilution between 0.25 and 125 μg/ml. For Streptococci Mueller Hinton agar was supplemented with 5% sheep blood. Plates were appropriately incubated and zone diameters of growth inhibition were measured using an electronic caliper. MICs were estimated using a linear regression curve between the zone diameter of growth inhibition and the log2 of the sample concentration. The microbiological assay set up is in agreement with the European Pharmacopoeia 3rd edition (1997). The inhibition zones are function of the concentration of the compounds used. Known antibiotics including fusidic acid (FA), mupirocin and linezolid were used as reference compounds.

Candida albicans ZA = tested on: Candida albicans ZA
From the text: as §1

[1] = tested on: Corynebacterium xerosis FF
From the text: as §1

E. coli HA165 = details: Escherichia coli
From the text: as §1

[2] = tested on: Propionibacterium acnes FN33; details: Cutibacterium acnes
From the text: as §1

[3] = tested on: Pseudomonas aeruginosa BA17
From the text: as §1

S. aureus CJ200 = details: Staphylococcus aureus
From the text: as §1

S. aureus CJ234F = details: Staphylococcus aureus; S. aureus CJ234F (MRSA, Fus. resistant)
From the text: as §1

S. aureus CJ234R = details: Staphylococcus aureus; S. aureus CJ234R (MRSA, Rifampicin resistant)
From the text: as §1

S. aureus CJ247 = details: Staphylococcus aureus
From the text: as §1

S. aureus N6 = details: Staphylococcus aureus; S. aureus N6 (Fus. resistant)
From the text: as §1

S. epidermis CK5 = details: Staphylococcus epidermidis
From the text: as §1

[4] = tested on: Saccaromyces cervisiae ZZ7; details: Saccharomyces cerevisiae
From the text: as §1

[5] = tested on: Streptococcus faecium EI19; details: Enterococcus faecium; Streptococcus faecium EI19 (Penicillin resistant); agar with 5% sheep blood
From the text: as §1

[6] = tested on: Streptococcus pyogenes EC88; details: agar with 5% sheep blood
From the text: as §1

Compound CC(=O)O[C@H]1C[C@@]2(C)C(C[C@@H](O)C3[C@@]4(C)CC[C@@H](O)[C@@H](C)C4CC[C@@]32C)[C@@H]1[C@H](CCCC(C)C)C(=O)NCCN(CCN)CCN (stereo partly drawn) [Compound 101, 21-N-{2′-[bis(2′-aminoethyl)amino]ethyl}-17R,20S,24,25-tetrahydrofusid-21-amide] has an MIC (Asbergillus niger ZM35) of 4 µg/mL (≈ 6.16 µM), an MIC (Candida albicans ZA) of 16 µg/mL (≈ 24.7 µM) and an MIC [1] of 4 µg/mL (≈ 6.16 µM). For the same compound, the MIC (E. coli HA165) was 16 µg/mL (≈ 24.7 µM), the MIC [2] was 4 µg/mL (≈ 6.16 µM) and the MIC [3] was 64 µg/mL (≈ 98.6 µM). For the same compound, the MIC (S. aureus CJ200) was 4 µg/mL (≈ 6.16 µM), the MIC (S. aureus CJ234F) was 4 µg/mL (≈ 6.16 µM) and the MIC (S. aureus CJ234R) was 4 µg/mL (≈ 6.16 µM). For the same compound, the MIC (S. aureus CJ247) was 4 µg/mL (≈ 6.16 µM), the MIC (S. aureus N6) was 4 µg/mL (≈ 6.16 µM) and the MIC (S. epidermis CK5) was 4 µg/mL (≈ 6.16 µM). For the same compound, the MIC [4] was 4 µg/mL (≈ 6.16 µM), the MIC [5] was 16 µg/mL (≈ 24.7 µM) and the MIC [6] was 16 µg/mL (≈ 24.7 µM).
Work on CC(C)CCCC(C(=O)NCCN(CCN)CCN)[C@@H]1CC[C@@]2(C)C1C[C@@H](O)C1[C@@]3(C)CC[C@@H](O)[C@@H](C)C3CC[C@@]12C (stereo partly drawn) [Compound 103, 21-N-{2′-[bis(2′-aminoethyl)amino]ethyl}-16-desacetoxy-17R,20S,24,25-tetrahydrofusid-21-amide] yielded an MIC (Asbergillus niger ZM35) greater than 125 µg/mL, an MIC (Candida albicans ZA) of 1 µg/mL (≈ 1.69 µM) and an MIC [1] of 1 µg/mL (≈ 1.69 µM). The MIC (E. coli HA165) was 4 µg/mL (≈ 6.77 µM), the MIC [2] was 1 µg/mL (≈ 1.69 µM) and the MIC [3] was 16 µg/mL (≈ 27.1 µM). It also gave an MIC (S. aureus CJ200) of 1 µg/mL (≈ 1.69 µM), an MIC (S. aureus CJ234F) of 1 µg/mL (≈ 1.69 µM) and an MIC (S. aureus CJ234R) of 1 µg/mL (≈ 1.69 µM). The MIC (S. aureus CJ247) was 1 µg/mL (≈ 1.69 µM), the MIC (S. aureus N6) was 1 µg/mL (≈ 1.69 µM) and the MIC (S. epidermis CK5) was 1 µg/mL (≈ 1.69 µM). The MIC [4] was 4 µg/mL (≈ 6.77 µM), the MIC [5] was 16 µg/mL (≈ 27.1 µM) and the MIC [6] was 4 µg/mL (≈ 6.77 µM).
For CC(C)CCCC(C(=O)NCCN(CCN)CCN)C1=C2C[C@@H](O)C3[C@@]4(C)CC[C@@H](O)[C@@H](C)C4CC[C@]3(C)[C@@]2(C)CC1 (stereo partly drawn) [Compound 104, 21-N-{2′-[bis(2′-aminoethyl)amino]ethyl}-13(17)-en-17,20,24,25-tetrahydrofusidan-21-carboxamide], the MIC (Asbergillus niger ZM35) was greater than 64 µg/mL, the MIC (Candida albicans ZA) was 16 µg/mL (≈ 27.2 µM) and the MIC [1] was 16 µg/mL (≈ 27.2 µM). It also gave an MIC (E. coli HA165) greater than 64 µg/mL, an MIC [2] of 16 µg/mL (≈ 27.2 µM) and an MIC [3] greater than 64 µg/mL. The MIC (S. aureus CJ200) was 16 µg/mL (≈ 27.2 µM), the MIC (S. aureus CJ234F) was 16 µg/mL (≈ 27.2 µM) and the MIC (S. aureus CJ234R) was 16 µg/mL (≈ 27.2 µM). For the same compound, the MIC (S. aureus CJ247) was 16 µg/mL (≈ 27.2 µM), the MIC (S. aureus N6) was 16 µg/mL (≈ 27.2 µM) and the MIC (S. epidermis CK5) was 16 µg/mL (≈ 27.2 µM). For the same compound, the MIC [4] was 16 µg/mL (≈ 27.2 µM), the MIC [5] was greater than 64 µg/mL and the MIC [6] was 16 µg/mL (≈ 27.2 µM).
Work on CC(=O)O[C@H]1C[C@@]2(C)C(C[C@@H](O)C3[C@@]4(C)CC[C@H](O)[C@@H](C)C4CC[C@@]32C)[C@@H]1[C@H](CCCC(C)C)C(=O)NCCN(CCN)CCN (stereo partly drawn) [Compound 105] yielded an MIC (Asbergillus niger ZM35) of 64 µg/mL (≈ 98.6 µM), an MIC (Candida albicans ZA) of 16 µg/mL (≈ 24.7 µM) and an MIC [1] of 16 µg/mL (≈ 24.7 µM). It also gave an MIC (E. coli HA165) of 64 µg/mL (≈ 98.6 µM), an MIC [2] of 16 µg/mL (≈ 24.7 µM) and an MIC [3] of 16 µg/mL (≈ 24.7 µM). It also gave an MIC (S. aureus CJ200) of 16 µg/mL (≈ 24.7 µM), an MIC (S. aureus CJ234F) of 16 µg/mL (≈ 24.7 µM) and an MIC (S. aureus CJ234R) of 16 µg/mL (≈ 24.7 µM). For the same compound, the MIC (S. aureus CJ247) was 16 µg/mL (≈ 24.7 µM), the MIC (S. aureus N6) was 16 µg/mL (≈ 24.7 µM) and the MIC (S. epidermis CK5) was 16 µg/mL (≈ 24.7 µM). It also gave an MIC [4] of 64 µg/mL (≈ 98.6 µM), an MIC [5] of 64 µg/mL (≈ 98.6 µM) and an MIC [6] of 64 µg/mL (≈ 98.6 µM).
CC(=O)O[C@H]1C[C@@]2(C)C(CC=C3[C@]2(C)CCC2[C@H](C)[C@H](O)CC[C@]32C)[C@@H]1[C@H](CCCC(C)C)C(=O)NCCN(CCN)CCN (stereo partly drawn) [Compound 106, 21-N-{2′-[bis(2′-aminoethyl)amino]ethyl}-9(11)-en-17R,20S,24,25-tetrahydrofusid-21-amide] gave an MIC (Asbergillus niger ZM35) of 63 µg/mL (≈ 99.8 µM), an MIC (Candida albicans ZA) of 16 µg/mL (≈ 25.4 µM) and an MIC [1] of 4 µg/mL (≈ 6.34 µM). It also gave an MIC (E. coli HA165) of 16 µg/mL (≈ 25.4 µM), an MIC [2] of 4 µg/mL (≈ 6.34 µM) and an MIC [3] of 16 µg/mL (≈ 25.4 µM). It also gave an MIC (S. aureus CJ234F) of 4 µg/mL (≈ 6.34 µM), an MIC (S. aureus CJ234R) of 4 µg/mL (≈ 6.34 µM) and an MIC (S. aureus CJ247) of 4 µg/mL (≈ 6.34 µM). For the same compound, the MIC (S. aureus N6) was 4 µg/mL (≈ 6.34 µM), the MIC (S. epidermis CK5) was 4 µg/mL (≈ 6.34 µM) and the MIC [4] was 16 µg/mL (≈ 25.4 µM). For the same compound, the MIC [5] was 16 µg/mL (≈ 25.4 µM) and the MIC [6] was 4 µg/mL (≈ 6.34 µM).
CC(=O)O[C@H]1C[C@@]2(C)C(CCC3[C@@]4(C)CC[C@@H](OS(=O)(=O)O)[C@@H](C)C4CC[C@@]32C)[C@@H]1[C@H](CCCC(C)C)C(=O)NCCN(CCN)CCN (stereo partly drawn) [Compound 111, 21-N-{2′-[bis(2′-aminoethyl)amino]ethyl}-3-OSO3-11-desoxy-17,20,24,25-tetrahydro-fusid-21-amide] was tested, and the MIC (Asbergillus niger ZM35) was 64 µg/mL (≈ 89.8 µM), the MIC (Candida albicans ZA) was 125 µg/mL (≈ 175 µM) and the MIC [1] was 16 µg/mL (≈ 22.4 µM). The MIC (E. coli HA165) was 16 µg/mL (≈ 22.4 µM), the MIC [2] was 4 µg/mL (≈ 5.61 µM) and the MIC [3] was greater than 125 µg/mL. The MIC (S. aureus CJ200) was 16 µg/mL (≈ 22.4 µM), the MIC (S. aureus CJ234F) was 16 µg/mL (≈ 22.4 µM) and the MIC (S. aureus CJ234R) was 16 µg/mL (≈ 22.4 µM). It also gave an MIC (S. epidermis CK5) of 4 µg/mL (≈ 5.61 µM), an MIC [4] of 64 µg/mL (≈ 89.8 µM) and an MIC [6] of 16 µg/mL (≈ 22.4 µM).
In the case of CC(C)CCCC(C(=O)NCCN(CCN)CCN)[C@H]1CC[C@@]2(C)C1CCC1[C@@]3(C)CC[C@@H](O)[C@@H](C)C3CC[C@@]12C (stereo partly drawn) [Compound 112, 21-N-{2′-[bis(2′-aminoethyl)amino]ethyl}-11-desoxy-16-desacetoxy-17S,20,24,25-tetrahydrofusid-21-amide], the MIC [1] was 0.25 µg/mL (≈ 0.435 µM), the MIC (S. aureus CJ200) was 1 µg/mL (≈ 1.74 µM) and the MIC (S. aureus CJ234F) was 1 µg/mL (≈ 1.74 µM). For the same compound, the MIC (S. aureus CJ234R) was 1 µg/mL (≈ 1.74 µM), the MIC (S. aureus CJ247) was 1 µg/mL (≈ 1.74 µM) and the MIC (S. aureus N6) was 1 µg/mL (≈ 1.74 µM). The MIC (S. epidermis CK5) was 1 µg/mL (≈ 1.74 µM).
